22 compounds from patent US11524966B1 (Valo Early Discovery, Inc., priority 2017, dated 2022) can be followed below.

The structures appear in SMILES notation.

For this assay, the target named is T1, USP28 (His-tagged USP28-FL-mammalian) (Homo sapiens, UniProt Q96RU2).
T1 construct: Expression of USP28 (1-1077)-TEV-6*His (pTT5 vector); made in house; host or cells: Expi293f cells (pTT5 vector)
T1 sequence (Q96RU2 1-1077): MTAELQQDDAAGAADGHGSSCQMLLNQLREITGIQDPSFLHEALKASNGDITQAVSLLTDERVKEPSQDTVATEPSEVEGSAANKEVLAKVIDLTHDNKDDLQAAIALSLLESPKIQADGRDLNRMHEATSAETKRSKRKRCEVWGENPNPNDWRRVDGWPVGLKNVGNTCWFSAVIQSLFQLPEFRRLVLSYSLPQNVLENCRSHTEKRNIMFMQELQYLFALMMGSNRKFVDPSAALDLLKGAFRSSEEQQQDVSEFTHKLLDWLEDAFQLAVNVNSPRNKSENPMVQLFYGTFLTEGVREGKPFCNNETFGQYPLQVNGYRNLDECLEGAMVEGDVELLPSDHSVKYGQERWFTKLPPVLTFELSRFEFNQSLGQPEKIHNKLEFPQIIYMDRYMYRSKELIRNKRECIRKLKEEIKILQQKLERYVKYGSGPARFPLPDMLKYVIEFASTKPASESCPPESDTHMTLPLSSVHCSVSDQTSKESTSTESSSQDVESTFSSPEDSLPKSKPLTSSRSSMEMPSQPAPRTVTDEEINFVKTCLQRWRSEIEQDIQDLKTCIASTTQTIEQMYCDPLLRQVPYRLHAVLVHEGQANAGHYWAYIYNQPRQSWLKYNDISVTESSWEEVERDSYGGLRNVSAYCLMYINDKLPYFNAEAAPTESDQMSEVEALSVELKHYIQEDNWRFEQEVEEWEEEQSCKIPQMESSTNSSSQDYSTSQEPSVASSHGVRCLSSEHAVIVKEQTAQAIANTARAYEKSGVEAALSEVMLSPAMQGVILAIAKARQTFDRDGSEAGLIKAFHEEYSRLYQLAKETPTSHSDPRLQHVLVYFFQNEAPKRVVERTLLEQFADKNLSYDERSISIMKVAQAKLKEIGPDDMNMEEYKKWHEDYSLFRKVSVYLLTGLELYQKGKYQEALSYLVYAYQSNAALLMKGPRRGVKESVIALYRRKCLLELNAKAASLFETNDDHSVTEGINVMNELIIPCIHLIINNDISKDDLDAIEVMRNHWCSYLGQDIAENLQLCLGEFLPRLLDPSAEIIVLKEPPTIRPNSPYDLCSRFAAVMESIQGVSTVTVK
Put plainly: Ubiquitin-Rhodamine 110 Assay for USP28 Activity, Example A-1(a). It is filed as biochemical. The note with it: Ubiquitin-Rhodamine 110 assay, Example A-1(a); read-out: USP28 A-1(a) IC50 range. An outline of the steps:
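IC50 from 4-parameter logistic fit of percent inhibition versus no-enzyme and DMSO controls; compounds 25 μM to 1.3 nM, 3-fold. Ub-Rh110 cleavage (25 nM, below Km) by […] mammalian-expressed USP28-FL-His ran 45 min at room temperature, stopped with 10 mM citric acid, read ex 485/em 535.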

In the case of `Cc1ccc2c(N)c(C(=O)N[C@H]3COc4cc(N5CC6CNCC(C5)O6)c(C#N)c(F)c4C3)sc2n1` [Example 127, 3-amino-N-[(3R)-6-cyano-5-fluoro-7-{9-oxa-3,7-diazabicyclo[3.3.1]nonan-3-yl}-3,4-dihydro-2H-1-benzopyran-3-yl]-6-methylthieno[2,3-b]pyridine-2-carboxamide], the 50% inhibitory concentration (IC50) was 1 to 50 nM.

Regarding `CO[C@H]1CN(c2ccc3c(c2)OC[C@H](NC(=O)c2sc4nc(C)ccc4c2N)C3)CC[C@@H]1N` [Example 128, 3-amino-N-[(3R)-7-[(3S,4S)-4-amino-3-methoxypiperidin-1-yl]-3,4-dihydro-2H-1-benzopyran-3-yl]-6-methylthieno[2,3-b]pyridine-2-carboxamide], the IC50 was in the range of 1 to 50 nM.

Take `CO[C@@H]1CN(c2ccc3c(c2)OC[C@H](NC(=O)c2sc4nc(C)ccc4c2N)C3)CC[C@H]1N` [Example 129, 3-amino-N-[(3R)-7-[(3R,4R)-4-amino-3-methoxypiperidin-1-yl]-3,4-dihydro-2H-1-benzopyran-3-yl]-6-methylthieno[2,3-b]pyridine-2-carboxamide]: the half-maximal inhibitory concentration (IC50) was in the range of 1 to 50 nM.

Turning to `CO[C@H]1CN(c2ccc3c(c2)CC[C@H](NC(=O)c2sc4nc(C)cnc4c2N)C3)C[C@@H]1N` [Example 130, 7-amino-N-[(2S)-6-[(3S,4S)-3-amino-4-methoxypyrrolidin-1-yl]-1,2,3,4-tetrahydronaphthalen-2-yl]-3-methylthieno[2,3-b]pyrazine-6-carboxamide], the IC50 lay within 50 to 200 nM.

With `CCn1ccc2cc(C(=O)N[C@H]3CCc4cc(N5C[C@H](OC)[C@@H](N)C5)ccc4C3)nnc21` [Example 131, N-[(2S)-6-[(3S,4S)-3-amino-4-methoxypyrrolidin-1-yl]-1,2,3,4-tetrahydronaphthalen-2-yl]-7-ethyl-7H-pyrrolo[2,3-c]pyridazine-3-carboxamide], the IC50 is above 2000 nM.

In the case of `CCn1ccc2cc(C(=O)N[C@H]3CCc4cc(N5C[C@H](OC)[C@@H](N)C5)ccc4C3)cnc21` [Example 132, N-[(2S)-6-[(3S,4S)-3-amino-4-methoxypyrrolidin-1-yl]-1,2,3,4-tetrahydronaphthalen-2-yl]-1-ethyl-1H-pyrrolo[2,3-b]pyridine-5-carboxamide], the half-inhibitory concentration (IC50) lay within 200 to 2000 nM.

Regarding `CO[C@H]1CN(c2ccc3c(c2)CC[C@H](NC(=O)c2sc4nc(C)sc4c2N)C3)C[C@@H]1N` [Example 133, 6-amino-N-[(2S)-6-[(3S,4S)-3-amino-4-methoxypyrrolidin-1-yl]-1,2,3,4-tetrahydronaphthalen-2-yl]-2-methylthieno[2,3-d][1,3]thiazole-5-carboxamide], the IC50 was in the range of 50 to 200 nM.

For `COc1ccc2c(N)c(C(=O)N[C@H]3CCc4cc(N5C[C@H](OC)[C@@H](N)C5)ccc4C3)sc2n1` [Example 134, 3-amino-N-[(2S)-6-[(3S,4S)-3-amino-4-methoxypyrrolidin-1-yl]-1,2,3,4-tetrahydronaphthalen-2-yl]-6-methoxythieno[2,3-b]pyridine-2-carboxamide], the IC50 lay within 200 to 2000 nM.

As to `COc1nc2sc(C(=O)N[C@H]3CCc4cc(N5C[C@H](OC)[C@@H](N)C5)ccc4C3)c(N)c2cc1F` [Example 135, 3-amino-N-[(2S)-6-[(3S,4S)-3-amino-4-methoxypyrrolidin-1-yl]-1,2,3,4-tetrahydronaphthalen-2-yl]-5-fluoro-6-methoxythieno[2,3-b]pyridine-2-carboxamide], the IC50 lay in the range of 200 to 2000 nM.

As to `CO[C@H]1CN(c2cc(F)c3c(c2)CC[C@H](NC(=O)c2sc4nc(C)ccc4c2N)C3)C[C@@H]1N` [Example 136, 3-amino-N-[(2S)-6-[(3S,4S)-3-amino-4-methoxypyrrolidin-1-yl]-8-fluoro-1,2,3,4-tetrahydronaphthalen-2-yl]-6-methylthieno[2,3-b]pyridine-2-carboxamide], the concentration for half-maximal inhibition (IC50) is above 2000 nM.

For the compound `CO[C@H]1CN(c2cc(F)c3c(c2)CC[C@@H](NC(=O)c2sc4nc(C)ccc4c2N)C3)C[C@@H]1N` [Example 137, 3-amino-N-[(2R)-6-[(3S,4S)-3-amino-4-methoxypyrrolidin-1-yl]-8-fluoro-1,2,3,4-tetrahydronaphthalen-2-yl]-6-methylthieno[2,3-b]pyridine-2-carboxamide], the concentration for half-maximal inhibition (IC50) lay within 50 to 200 nM.

Regarding `CCn1ccc2cc(C(=O)N[C@H]3CCc4cc(N5C[C@H](OC)[C@@H](N)C5)cc(F)c4C3)nnc21` [Example 138, N-[(2S)-6-[(3S,4S)-3-amino-4-methoxypyrrolidin-1-yl]-8-fluoro-1,2,3,4-tetrahydronaphthalen-2-yl]-7-ethyl-7H-pyrrolo[2,3-c]pyridazine-3-carboxamide], the IC50 is above 2000 nM.

With `CCn1ccc2cc(C(=O)N[C@@H]3CCc4cc(N5C[C@H](OC)[C@@H](N)C5)cc(F)c4C3)nnc21` [Example 139, N-[(2R)-6-[(3S,4S)-3-amino-4-methoxypyrrolidin-1-yl]-8-fluoro-1,2,3,4-tetrahydronaphthalen-2-yl]-7-ethyl-7H-pyrrolo[2,3-c]pyridazine-3-carboxamide], the IC50 was above 2000 nM.

As for `Cc1ccc2c(N)c(C(=O)N[C@H]3COc4cc(N5C[C@H](OC6CC6)[C@@H](N)C5)ccc4C3)sc2n1` [Example 140, 3-amino-N-[(3R)-7-[(3S,4S)-3-amino-4-cyclopropoxypyrrolidin-1-yl]-3,4-dihydro-2H-1-benzopyran-3-yl]-6-methylthieno[2,3-b]pyridine-2-carboxamide], the 50% inhibitory concentration (IC50) lay in the range of 1 to 50 nM.

`Cc1ccc2c(N)c(C(=O)N[C@H]3COc4cc(N5C[C@H](OC6CCC6)[C@@H](N)C5)ccc4C3)sc2n1` [Example 141, 3-amino-N-[(3R)-7-[(3S,4S)-3-amino-4-cyclobutoxypyrrolidin-1-yl]-3,4-dihydro-2H-1-benzopyran-3-yl]-6-methylthieno[2,3-b]pyridine-2-carboxamide]: the concentration for half-maximal inhibition (IC50) was 1 to 50 nM.

Consider `CCO[C@H]1CN(c2ccc3c(n2)CC[C@H](NC(=O)c2sc4nc(C)ccc4c2N)C3)C[C@@H]1N` [Example 142, 3-amino-N-[(6S)-2-[(3S,4S)-3-amino-4-ethoxypyrrolidin-1-yl]-5,6,7,8-tetrahydroquinolin-6-yl]-6-methylthieno[2,3-b]pyridine-2-carboxamide], for which the half-inhibitory concentration (IC50) fell in the range of 200 to 2000 nM.

Consider `CO[C@@H]1CN(c2ccc3c(c2)CC[C@H](NC(=O)c2sc4nc(C)ccc4c2N)C3)C[C@@H]1N` [Example 143, 3-amino-N-[(2S)-6-[(3S,4R)-3-amino-4-methoxypyrrolidin-1-yl]-1,2,3,4-tetrahydronaphthalen-2-yl]-6-methylthieno[2,3-b]pyridine-2-carboxamide], for which the IC50 was in the range of 1 to 50 nM.

`CO[C@@H]1CN(c2cc(F)c3c(c2)OC[C@H](NC(=O)c2sc4nc(C)ccc4c2N)C3)C[C@@H]1N` [Example 145, 3-amino-N-[(3R)-7-[(3S,4R)-3-amino-4-methoxypyrrolidin-1-yl]-5-fluoro-3,4-dihydro-2H-1-benzopyran-3-yl]-6-methylthieno[2,3-b]pyridine-2-carboxamide]: the IC50 fell in the range of 1 to 50 nM.

As for `CO[C@H]1CN(c2cc(F)c3c(c2)OC[C@H](NC(=O)c2sc4nc(C)ccc4c2N)C3)C[C@H]1N` [Example 146], the IC50 fell in the range of 1 to 50 nM.

For `CO[C@H]1CN(c2ccc3c(c2)OC[C@H](NC(=O)c2sc4nc(C)cnc4c2N)C3)C[C@H]1N` [Example 148, 7-amino-N-[(3R)-7-[(3R,4S)-3-amino-4-methoxypyrrolidin-1-yl]-3,4-dihydro-2H-1-benzopyran-3-yl]-3-methylthieno[2,3-b]pyrazine-6-carboxamide], the IC50 is 1 to 50 nM.

Take `CO[C@@H]1CN(c2ccc3c(c2)OC[C@H](NC(=O)c2sc4nc(C)sc4c2N)C3)C[C@@H]1N` [Example 149, 6-amino-N-[(3R)-7-[(3S,4R)-3-amino-4-methoxypyrrolidin-1-yl]-3,4-dihydro-2H-1-benzopyran-3-yl]-2-methylthieno[2,3-d][1,3]thiazole-5-carboxamide]: the IC50 was 1 to 50 nM.

For the compound `CO[C@H]1CN(c2ccc3c(c2)OC[C@H](NC(=O)c2sc4nc(C)sc4c2N)C3)C[C@H]1N` [Example 150], the 50% inhibitory concentration (IC50) lay within 50 to 200 nM.
